From patent US7595300B2, “7-quinolyl ketolide antibacterial agents” (priority 2005, dated 2009)
≈ marks a conversion by molar mass, not a printed value. Like-named read-outs stand apart in the source and are kept apart here.

Experiments:
anesthetized rats = assay: Cardiovascular safety, QT interval in anesthetized rats, i.v. bolus; format: in vivo, rat; settings: anesthetized rat, incremental i.v. bolus doses 0.47 to 15 mg/kg
Method: (§1) Total doses of drug (0.47, 0.94, 1.88, 3.75, 7.5, and 15 mg/kg) or equivalent volumes of vehicle were administered incrementally as an i.v. bolus to groups of 6 anesthetized rats or guinea pigs at 0, 15, 30, 45, 60, and 75 minutes. Hemodynamic parameters including mean arterial pressure (MAP) and heart rate (HR), and ECG parameters (QT and PR intervals and QRS duration) were recorded. For the rat, injection of vehicle gave a 16% increase in QT interval over baseline. For the guinea pig, injection of vehicle gave a 3% increase in QT interval over baseline.

anesthetized guinea pigs = assay: Cardiovascular safety, QTc interval in anesthetized guinea pigs, i.v. bolus; format: in vivo, guinea pig; settings: for QTc prolongation (% above vehicle): anesthetized guinea pig, incremental i.v. bolus doses 0.47 to 15 mg/kg; for effect on the QTc interval in the anesthetized guinea pig: cumulative doses up to 30 mg/kg, relative to vehicle controls
Method: as §1

[1] = Pharmacokinetics in the mouse, plasma and lung tissue; format: in vivo; settings: oral gavage 10 mg/kg; for Lung AUC / Lung Cmax: mouse lung tissue; for Plasma AUC / Plasma Cmax: mouse plasma
Method: The pharmacokinetics of compounds of formula (VIII) and compounds of formula (II) and (III) were measured in the mouse. Compounds were administered either intravenously (i.v.) at 1 mg/kg, or per oral gavage (p.o.) at 10 mg/kg. Plasma samples were taken and analyzed by LC/MS-MS. For lung tissue pharmacokinetics, lungs were removed and homogenized, followed by analyzis by LC/MS-MS.

Haemophilus influenzae = assay: MIC, NCCLS broth microdilution, respiratory pathogens; format: cell-based; settings: H. influenzae
Method: (§2) Minimum inhibitory concentrations (“MICs”) were determined by the NCCLS broth microdilution procedure for susceptibility testing for bacteria that grow aerobically (National Committee for Clinical Laboratory Standards, 1997. Methods for dilution antimicrobial susceptibility tests for bacteria that grow aerobically, 4th ed. Approved standard. NCCLS Document M7-A4. National Committee for Clinical Laboratory Standards, Villanova, Pa.). Stock solutions were prepared on the day of the test and appropriate aliquots were added to cation adjusted Mueller-Hinton broth (CAMHB, DIFCO) or Haemophilus test media. Two-fold serial dilutions were prepared and added to wells in microtiter plates. Final test concentrations ranged from 8 to 0.004 ug/ml. Broth cultures of bacteria inoculated from growth on overnight plates for all test bacteria except Streptococcus pneumoniae and Haemophilus influenzae were incubated at 35° C. and then adjusted to the Kirby Bauer standard and diluted in CAMHB to achieve a final inoculum concentration of approximately 5×10^5 CFU/ml. Inocula for S. pneumoniae and H. influenzae were prepared by directly suspending colonies from an overnight plate, adjusting the turbidity and diluting as above. S. pneumoniae media was supplemented with 3% lysed horse blood. All plates were incubated in ambient air at 35° C. for 20-24 h for S. pneumoniae and Haemophilus influenzae and 16-20 h for all other bacteria.

M. catarrhalis = assay: as above; format: cell-based; settings: Moraxella catarrhalis, M. catarrhalis
Method: as §2

S. pyogenes = assay: as above; format: cell-based; settings: Streptococcus pyogenes; for MIC50: read-out: MIC50; for MIC90: read-out: MIC90
Method: as §2

Streptococcus pneumoniae = assay: as above; format: cell-based; settings: S. pneumoniae; for MIC50: read-out: MIC50; for MIC90: read-out: MIC90
Method: as §2

P. acnes = assay: MIC, NCCLS Reference Agar Dilution Method for anaerobic bacteria; format: cell-based, Propionibacterium acnes
Method: (§3) Minimum inhibitory concentrations (“MICs”) were determined by the NCCLS Reference Agar Dilution Method (M11-A5, Vol. 21, No. 2) for anaerobic bacteria. A panel of 84 antibiotic-susceptible and resistant strains of Propionibacteria from distinct geographic locations were selected. Following revival from frozen stocks, each strain was purity plated onto Wilkins Chalgren Agar, pH 7.2 (Oxoid, UK), and the appropriate antibiotic resistance/susceptibility phenotype was confirmed by antibiotic disc testing. Each strain was subjected to an agar dilution MIC assay. […] The inocula for each batch of strains were prepared from 7-day old Wilkins Chalgren Agar plate cultures by resuspension of colonies in Wilkins Chalgren Anaerobe broth, pH 7.2 (Oxoid, UK) to an optical density (OD600) of 0.2±0.02. The inoculum (1.0-2.0 μL) for each strain was applied to a Wilkins Chalgren Agar MIC plate in a grid pattern using a Multipoint Inoculator (Denley, UK). All agar plates were incubated at 37° C. for 3 days under anaerobic conditions in AnaeroPack 7 liter rectangular jars (Mitsubishi Gas Chemical Company, Inc., Japan).

P. granulosum = assay: as above; format: cell-based, Propionibacterium granulosum
Method: as §3

[2] = marker RNA 2057, phenotype EryR
[3] = marker RNA 2058, phenotype EryR
[4] = marker RNA 2059, phenotype EryR

## CC1CC(N(C)C)C(O)C(O[C@@H]2[C@@H](C)C(=O)[C@@H](C)C(=O)O[C@H](CCF)[C@@]3(C)OC(=O)N[C@@H]3[C@@H](C)C(=O)[C@H](C)C[C@@]2(C)OC/C=C/c2cnc3ccccc3c2)O1 (stereo partly shown) [A]
Anesthetized rats
  QT prolongation (% above vehicle): 8 % above vehicle
Anesthetized guinea pigs
  QTc prolongation (% above vehicle): 10 % above vehicle
  effect on the QTc interval in the anesthetized guinea pig: pronounced, dose-dependent prolongation of the QT interval
[1]
  Lung AUC: 2.3 ug/mL-h
  Lung Cmax: 800 ng/mL
  Plasma AUC: 0.7 ug/mL-h
  Plasma Cmax: 400 ng/mL

## CC1CC(N(C)C)C(O)C(O[C@@H]2[C@@H](C)C(=O)[C@](C)(F)C(=O)O[C@H](CCF)[C@@]3(C)OC(=O)N[C@@H]3[C@@H](C)C(=O)[C@H](C)C[C@@]2(C)OC/C=C/c2cnc3ccccc3c2)O1 (stereo partly shown) [B]
Anesthetized rats
  QT prolongation (% above vehicle): 10 % above vehicle
Anesthetized guinea pigs
  QTc prolongation (% above vehicle): 3 % above vehicle
  effect on the QTc interval in the anesthetized guinea pig: smaller yet persistent increase in QTc at the highest dose
[1]
  Lung AUC: 19.0 ug/mL-h
  Lung Cmax: 3300 ng/mL
  Plasma AUC: 3.9 ug/mL-h
  Plasma Cmax: 1000 ng/mL

## CC1CC(N(C)C)C(O)C(O[C@@H]2[C@@H](C)C(=O)[C@@H](C)C(=O)O[C@H](CCF)[C@@]3(C)OC(=O)N[C@@H]3[C@@H](C)C(=O)[C@H](C)C[C@@]2(C)OC/C=C/c2ccc3ncccc3c2)O1 (stereo partly shown) [C]
Anesthetized rats
  QT prolongation (% above vehicle): 20 % above vehicle
Anesthetized guinea pigs
  QTc prolongation (% above vehicle): 12 % above vehicle
  effect on the QTc interval in the anesthetized guinea pig: pronounced, dose-dependent prolongation of the QT interval

## CC1CC(N(C)C)C(O)C(O[C@@H]2[C@@H](C)C(=O)[C@@H](C)C(=O)O[C@H](CCF)[C@@]3(C)OC(=O)N[C@@H]3[C@@H](C)C(=O)[C@H](C)C[C@@]2(C)OC/C=C/c2cnc3cccnc3c2)O1 (stereo partly shown) [D]
Anesthetized rats
  QT prolongation (% above vehicle): 28 % above vehicle
Anesthetized guinea pigs
  QTc prolongation (% above vehicle): 14 % above vehicle
  effect on the QTc interval in the anesthetized guinea pig: pronounced, dose-dependent prolongation of the QT interval

## CC1CC(N(C)C)C(O)C(O[C@@H]2[C@@H](C)C(=O)[C@@H](C)C(=O)O[C@H](CCF)[C@@]3(C)OC(=O)N[C@@H]3[C@@H](C)C(=O)[C@H](C)C[C@@]2(C)OC/C=C/c2ccc3nccnc3c2)O1 (stereo partly shown) [G]
Anesthetized rats
  QT prolongation (% above vehicle): 12 % above vehicle
Anesthetized guinea pigs
  QTc prolongation (% above vehicle): 1 % above vehicle
  effect on the QTc interval in the anesthetized guinea pig: moderate, dose-dependent increase in the QTc interval that slowly returned to baseline
[1]
  Lung AUC: 2.2 ug/mL-h
  Lung Cmax: 450 ng/mL
  Plasma AUC: 0.54 ug/mL-h
  Plasma Cmax: 210 ng/mL

## CC[C@H]1OC(=O)[C@H](C)[C@@H](O[C@H]2C[C@@](C)(OC)[C@@H](O)[C@H](C)O2)[C@H](C)[C@@H](O[C@@H]2O[C@H](C)C[C@H](N(C)C)[C@H]2O)[C@](C)(OC)C[C@@H](C)C(=O)[C@H](C)[C@@H](O)[C@]1(C)O [clarithromycin, reference compound]
Haemophilus influenzae; resistant
  MIC50: > 8 µg/mL
  MIC90: > 8 µg/mL
Haemophilus influenzae; sensitive
  MIC50: 8 µg/mL (≈ 10.7 µM)
  MIC90: 8 µg/mL (≈ 10.7 µM)
M. catarrhalis; read-out: MIC50
  MIC50: 0.12 µg/mL (≈ 0.16 µM)
M. catarrhalis; read-out: MIC90
  MIC90: 0.12 µg/mL (≈ 0.16 µM)
S. pyogenes; genotype ermB
  MIC50: > 8 µg/mL
  MIC90: > 8 µg/mL
S. pyogenes; genotype mef
  MIC50: 8 µg/mL (≈ 10.7 µM)
  MIC90: > 8 µg/mL
S. pyogenes; genotype sensitive
  MIC50: 0.06 µg/mL (≈ 0.0802 µM)
  MIC90: 0.06 µg/mL (≈ 0.0802 µM)
Streptococcus pneumoniae; 20 h, genotype ermB + mef
  MIC50: > 8 µg/mL
Streptococcus pneumoniae; genotype ermB + mef
  MIC90: > 8 µg/mL
Streptococcus pneumoniae; genotype ermB
  MIC50: > 8 µg/mL
  MIC90: > 8 µg/mL
Streptococcus pneumoniae; genotype mef
  MIC50: 4 µg/mL (≈ 5.35 µM)
  MIC90: 8 µg/mL (≈ 10.7 µM)
Streptococcus pneumoniae; genotype sensitive
  MIC50: 0.06 µg/mL (≈ 0.0802 µM)
  MIC90: 0.06 µg/mL (≈ 0.0802 µM)

## CCC[C@@H]1C[C@@H](C(=O)N[C@@H]([C@H]2O[C@H](SC)[C@H](O)[C@@H](O)[C@H]2O)[C@H](C)Cl)N(C)C1 [clindamycin]
P. acnes; marker RNA 1058, phenotype TetR
  MIC range: 0.25 to 256 µg/mL
P. acnes; marker RNA 1058/2058, phenotype TetR, EryR
  MIC range: 256 µg/mL (≈ 602 µM)
P. acnes; marker RNA 1058/2059, phenotype TetR, EryR
  MIC range: 8 to 16 µg/mL
P. acnes; [2]
  MIC range: 1 µg/mL (≈ 2.35 µM)
P. acnes; [3]
  MIC range: 8 to 256 µg/mL
P. acnes; marker RNA 2058, phenotype EryR, TetR
  MIC range: 2 to 256 µg/mL
P. acnes; [4]
  MIC range: 8 to 256 µg/mL
P. acnes; marker RNA 2059, phenotype EryR, TetR
  MIC range: 8 to 32 µg/mL
P. acnes; marker ermX, phenotype EryR
  MIC range: >512 µg/mL
P. acnes; marker none, phenotype none
  MIC range: 0.125 to 1 µg/mL
P. acnes; marker unknown, phenotype ClindR
  MIC range: 4 µg/mL (≈ 9.41 µM)
P. granulosum; [3]
  MIC range: 512 µg/mL (≈ 1200 µM)
P. granulosum; [4]
  MIC range: 2 to 512 µg/mL
P. granulosum; marker ermX, phenotype EryR
  MIC range: 512 µg/mL (≈ 1200 µM)
P. granulosum; marker none, phenotype none
  MIC range: 0.06 to 0.25 µg/mL

## CC[C@H]1OC(=O)[C@H](C)[C@@H](O[C@H]2C[C@@](C)(OC)[C@@H](O)[C@H](C)O2)[C@H](C)[C@@H](O[C@@H]2O[C@H](C)C[C@H](N(C)C)[C@H]2O)[C@](C)(O)C[C@@H](C)C(=O)[C@H](C)[C@@H](O)[C@]1(C)O [erythromycin]
P. acnes; [2]
  MIC range: 4 µg/mL (≈ 5.45 µM)
P. granulosum; marker none, phenotype none
  MIC range: 0.06 to 8 µg/mL
